Reference: patent US11970448B2, “Monomers capable of dimerizing in an aqueous solution, and methods of using same” (CORNELL UNIVERSITY, priority 2011, dated 2024)
pIC50: −log10 of the molar value. Where a name gives a salt, the structure may show the parent alone. Read-outs that look alike come from different tables or passages of the source.

Target: T1, recominbant human tryptase, beta, from lung (Homo sapiens, UniProt P20231)
T1 construct: purchased Promega or Enzo Life Sciences G5631 or BML-SE418
Test: Inhibition of tryptase activity by monomers and multimers (Boc-Gln-Ala-Arg-AMC fluorescence)
Assay type: biochemical
Conditions: monomers against tryptase
Experimental: Stock solutions of recominbant human tryptase, beta, from lung (Promega: catalog number G5631, or Enzo Life Sciences: catalog number BML-SE418) were made at 30 μM, in solution with 5 μM heparin sulfate and 1 M NaCl. Monomer tryptase inhibitor stock solutions were made at 50 mM in DMSO. Test substance plates were made at 1.2× the final concentration in assay buffer (50 mM HEPES, 150 mM NaCl, 100 μM EDTA, pH 7.4, 0.02% Tween-20). A final concentration of 1 nM tryptase was used. When required, test substances were diluted in water immediately before use in 10-fold serial dilutions. After the indicated incubation time, the test subtance-tryptase solution at 1.2× concentration, was diluted into assay buffer containing a final concentration of 200 μM N-tert-butoxycarbonyl-Gln-Ala-Arg-AMC HBr [AMC=7-amino-4-methylcoumarin] (Boc-Gln-Ala-Arg-AMC; Enzo Life Sciences: catalog number BML-P237) to a final volume of 50 μl in black opaque round bottom 96 well plates (Corning, catalog number 3792). The release of fluorescent AMC was immediately measured every 30 seconds over 15-30 minutes at an excitation wavelength of 367 nm, monitoring emission at 468 nm on a Spectramax M5 (Molecular Devices) microplate reader. The Softmax Pro (Molecular Devices) and Graphpad prism software were used to determine Vmax, and concentration-response curve IC50s, respectively.

[1] = Table 5, read-out: Monomer IC50 range
[2] = read-out: IC50 range group of additional monomers (boronic acid, benzooxaborole, ligands)
[3] = entry marked (1:10), read-out: IC50 range group of additional monomers marked (1:10)

T1 sequence (P20231 31-275): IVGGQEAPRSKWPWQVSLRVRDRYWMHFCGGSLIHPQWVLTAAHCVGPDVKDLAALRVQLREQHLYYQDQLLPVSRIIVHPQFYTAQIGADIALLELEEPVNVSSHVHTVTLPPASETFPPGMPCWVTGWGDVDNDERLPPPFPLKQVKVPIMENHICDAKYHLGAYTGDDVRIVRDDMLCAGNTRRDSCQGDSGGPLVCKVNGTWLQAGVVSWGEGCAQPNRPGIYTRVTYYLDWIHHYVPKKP

| Structure (SMILES) | pIC50 [1] | pIC50 [2] | pIC50 [3] |
| --- | --- | --- | --- |
| CC(C)(O)c1ccc(/C=C/C(=O)N2CCC(c3cccc(CN)c3)CC2)cc1O [T41GEM, (E)-1-(4-(3-(aminomethyl)phenyl)piperidin-1-yl)-3-(3-hydroxy-4-(2-hydroxypropan-2-yl)phenyl)prop-2-en-1-one] | 6.00 to 10.00 | 6.00 to 10.00 | – |
| NCc1cccc(C2CCN(C(=O)c3ccc(OCC(=O)N4C[C@@H](O)[C@@H](O)C4)cc3)CC2)c1 [T30, 2-(4-(4-(3-(aminomethyl)phenyl)piperidine-1-carbonyl)phenoxy)-1-((3S,4R)-3,4-dihydroxypyrrolidin-1-yl)ethanone] | 5.00 to 6.00 | 5.00 to 6.00 | – |
| NCc1cccc(C2CCN(C(=O)c3cccc(OCC(O)(C(=O)O)C4CCCC4)c3)CC2)c1 (stereo not shown) [T103, 3-(3-(4-(3-(aminomethyl)phenyl)piperidine-1-carbonyl)phenoxy)-2-cyclopentyl-2-hydroxypropanoic acid] | 6.00 to 10.00 | – | 6.00 to 10.00 |
| COc1cc(C(=O)N2CCC3(CC2)COc2ccc(CN)cc23)cc(O)c1O [T104SPIRO] | – | 6.00 to 10.00 | – |
| NCc1ccc2c(c1)C1(CCN(C(=O)c3ccc(O)c(C(=O)NOc4ccccc4)c3)CC1)CO2 [T92PHSPIRO] | – | 5.00 to 6.00 | – |
| NCc1cccc(C2CCN(C(=O)/C=C/c3ccc(C4CC4)c(O)c3)CC2)c1 [T41CYCLO, (E)-1-(4-(3-(aminomethyl)phenyl)piperidin-1-yl)-3-(4-cyclopropyl-3-hydroxyphenyl)prop-2-en-1-one] | 6.00 to 10.00 | – | – |
| NCc1cccc(C2CCN(C(=O)c3cc(O)c(O)c(O)c3)CC2)c1 [T69, (4-(3-(aminomethyl)phenyl)piperidin-1-yl)(3,4,5-trihydroxyphenyl)methanone] | 5.00 to 6.00 | 5.00 to 6.00 | – |
| NCc1cccc(C2CCN(C(=O)c3cccc(-c4ccc5c(c4)COB5O)c3)CC2)c1 [T36M, (4-(3-(aminomethyl)phenyl)piperidin-1-yl)(3-(1-hydroxy-1,3-dihydrobenzo[c][1,2]oxaborol-5-yl)phenyl)methanone] | 6.00 to 10.00 | 6.00 to 10.00 | – |
| NCc1cccc(C2CCN(C(=O)Cc3cc(=O)oc4cc(O)c(O)cc34)CC2)c1 [T97, 4-(2-(4-(3-(aminomethyl)phenyl)piperidin-1-yl)-2-oxoethyl)-6,7-dihydroxy-2H-chromen-2-one] | 5.00 to 6.00 | 5.00 to 6.00 | – |
| NCc1cccc(C2CCN(C(=O)c3ccc(O)c(C(N)=O)c3)CC2)c1 [T66, 5-(4-(3-(aminomethyl)phenyl)piperidine-1-carbonyl)-2-hydroxybenzamide] | 6.00 to 10.00 | 6.00 to 10.00 | – |
| NCc1cccc(C2CCN(C(=O)/C=C/c3cccc(O)c3CO)CC2)c1 [T42] | 5.00 to 6.00 | 5.00 to 6.00 | – |
| NCc1cccc(C2CCN(C(=O)c3cccc4cc(CO)c(O)cc34)CC2)c1 [T44, (4-(3-(aminomethyl)phenyl)piperidin-1-yl)(7-hydroxy-6-(hydroxymethyl)naphthalen-1-yl)methanone] | 5.00 to 6.00 | 5.00 to 6.00 | – |
| Cc1cc(C(=O)N2CCC3(CC2)COc2ccc(CN)cc23)cc(CO)c1O [T113SPIRO] | – | 6.00 to 10.00 | – |
| NCc1ccc(CNC(=O)N2CCN(C(=O)CNC(=O)C(O)CO)CC2)cc1 (stereo not shown) [CF13, N-(4-(aminomethyl)benzyl)-4-(2-(2,3-dihydroxypropanamido)acetyl)piperazine-1-carboxamide hydrochloride] | 5.00 to 6.00 | – | – |
| CC(C)(C)ONC(=O)c1ccc(C(=O)N2CCC3(CC2)COc2ccc(CN)cc23)cc1O [T75AOTBSPIRO] | – | 6.00 to 10.00 | – |
| NCc1cccc(C2CCN(C(=O)/C=C/c3cc(O)c(O)c(O)c3)CC2)c1 [T43, (E)-1-(4-(3-(aminomethyl)phenyl)piperidin-1-yl)-3-(3,4,5-trihydroxyphenyl)prop-2-en-1-one] | 6.00 to 10.00 | 6.00 to 10.00 | – |

| Structure (SMILES) | pIC50 [1] | pIC50 [2] | pIC50 [3] |
| --- | --- | --- | --- |
| NCc1ccc2c(c1)C1(CCN(C(=O)c3cccc(-c4cc(F)cc(B(O)O)c4)c3)CC1)CO2 [T132SPIRO] | – | 5.00 to 6.00 | – |
| CONC(=O)c1ccc(C(=O)N2CCC3(CC2)COc2ccc(CN)cc23)cc1O [T75ASPIRO] | – | – | 6.00 to 10.00 |
| NCc1ccc(F)c(C2CCN(C(=O)c3cccc4cc(O)c(O)cc34)CC2)c1 [T27F, (4-(5-(aminomethyl)-2-fluorophenyl)piperidin-1-yl)(6,7-dihydroxynaphthalen-1-yl)methanone] | 5.00 to 6.00 | 5.00 to 6.00 | – |
| NCc1ccc2c(c1)C1(CCN(C(=O)c3cccc(-c4cccc(B(O)O)c4)c3)CC1)CO2 [T35SPIRO, 3′-(5-(aminomethyl)-2H-spiro[benzofuran-3,4′-piperidine]-1′-ylcarbonyl)biphenyl-3-ylboronic acid] | 5.00 to 6.00 | 5.00 to 6.00 | – |
| NCc1cccc(C2CCN(C(=O)c3cc4c(B(O)O)cccc4s3)CC2)c1 [T56, 2-(4-(3-(aminomethyl)phenyl)piperidine-1-carbonyl)benzo[b]thiophen-4-ylboronic acid] | 6.00 to 10.00 | 6.00 to 10.00 | – |
| NCc1cccc(C2CCN(C(=O)c3cnc4c(B(O)O)cccc4c3)CC2)c1 [T156] | – | 6.00 to 10.00 | – |
| NCc1cccc(C2CCN(C(=O)/C=C/c3cccc(B(O)O)c3)CC2)c1 [T34, (E)-3-(3-(4-(3-(aminomethyl)phenyl)piperidin-1-yl)-3-oxoprop-1-enyl)phenylboronic acid] | 5.00 to 6.00 | 5.00 to 6.00 | – |
| CC1(O)CN(c2cccc(C(=O)N3CCC(c4cccc(CN)c4)CC3)c2)CC1(C)O (stereo not shown) [T67, (4-(3-(aminomethyl)phenyl)piperidin-1-yl)(3-(3,4-dihydroxy-3,4-dimethylpyrrolidin-1-yl)phenyl)methanone] | 6.00 to 10.00 | 6.00 to 10.00 | – |
| NCc1cccc(C2CCN(C(=O)c3cc(=O)oc4c(O)c(O)ccc34)CC2)c1 [T96] | – | 5.00 to 6.00 | – |
| NCc1cccc(C2CCN(C(=O)/C=C/c3ccc(C(N)=O)c(O)c3)CC2)c1 [T76, (E)-4-(3-(4-(3-(aminomethyl)phenyl)piperidin-1-yl)-3-oxoprop-1-enyl)-2-hydroxybenzamide] | 6.00 to 10.00 | 6.00 to 10.00 | – |
| NCc1cccc(C2CCN(C(=O)c3cccc(NC(=O)C4CC5CC4C(O)C5O)c3)CC2)c1 (racemic) [T139RACEENDO, (±) endo-N-(3-(4-(3-(aminomethyl)phenyl)piperidine-1-carbonyl)phenyl)-5,6-syn-dihydroxybicyclo[2.2.1]heptane-2-carboxamide] | – | 5.00 to 6.00 | – |
| NCc1cccc(C2CCN(C(=O)/C=C/c3ccc(B(O)O)cc3)CC2)c1 [T33, (E)-4-(3-(4-(3-(aminomethyl)phenyl)piperidin-1-yl)-3-oxoprop-1-enyl)phenylboronic acid] | 5.00 to 6.00 | 5.00 to 6.00 | – |
| NCc1cccc(C2CCN(C(=O)c3cccc(OCC(=O)C4(O)CCC4)c3)CC2)c1 [T22, 2-(3-(4-(3-(aminomethyl)phenyl)piperidine-1-carbonyl)phenoxy)-1-(1-hydroxycyclobutyl)ethanone] | 6.00 to 10.00 | – | – |
| N=C(N)c1ccc2c(c1)C1(CCN(C(=O)/C=C/c3ccc(B(O)O)cc3)CC1)CO2 [T33SPAM, (E)-4-(3-(5-carbamimidoyl-2H-spiro[benzofuran-3,4′-piperidine]-1′-yl)-3-oxoprop-1-enyl)phenylboronic acid] | – | 5.00 to 6.00 | – |
| NCc1cccc(C2CCN(C(=O)Cc3ccc(B(O)O)cc3F)CC2)c1 [T58, 4-(2-(4-(3-(aminomethyl)phenyl)piperidin-1-yl)-2-oxoethyl)-3-fluorophenylboronic acid] | 5.00 to 6.00 | 5.00 to 6.00 | – |
